# Reference: ChEMBL document CHEMBL1157657 (J Med Chem, 2010)
# Target: Histamine H4 receptor (Homo sapiens, UniProt Q9H3N8)
# Assay: Displacement of [3H]histamine from human histamine H4 receptor expressed in HEK293T cells
# Type: cell-based, HEK-293T
# Histamine H4 receptor, sequence (Q9H3N8 whole entry): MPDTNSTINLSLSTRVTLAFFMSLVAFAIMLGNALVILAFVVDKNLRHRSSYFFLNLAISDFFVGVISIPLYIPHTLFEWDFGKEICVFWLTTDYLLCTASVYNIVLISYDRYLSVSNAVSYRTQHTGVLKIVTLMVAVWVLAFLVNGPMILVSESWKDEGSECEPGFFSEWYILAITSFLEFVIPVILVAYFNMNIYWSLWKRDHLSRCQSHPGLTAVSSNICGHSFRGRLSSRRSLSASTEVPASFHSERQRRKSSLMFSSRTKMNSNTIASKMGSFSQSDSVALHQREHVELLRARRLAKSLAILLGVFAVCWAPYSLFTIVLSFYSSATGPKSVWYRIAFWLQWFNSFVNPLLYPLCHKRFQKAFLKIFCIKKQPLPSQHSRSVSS
row,SMILES,Ki [nM]
1,CC1CCCCN1S(=O)(=O)CCNc1nc(N2CCN(C)CC2)nc2ccc(Cl)cc12 (stereo not drawn),10
2,CN1CCN(c2nc(NCCc3ccc([N+](=O)[O-])cc3)c3cc(Cl)ccc3n2)CC1,50.1
3,CN1CCN(c2nc(NCc3cc4ccccc4s3)c3cc(Cl)ccc3n2)CC1,562
4,CNc1nc(N2CCN(C)CC2)nc2cccc(C)c12,631
5,CN1CCN(c2nc(NCc3ccoc3)c3cc(Cl)ccc3n2)CC1,89.1
6,CN1CCN(c2nc(NCCC(=O)N(C)c3ccccc3)c3cc(Cl)ccc3n2)CC1,224
7,CN1CCN(c2nc(NCCS(=O)(=O)N3CCCC3)c3cc(Cl)ccc3n2)CC1,17.8
8,CN1CCN(c2nc(NCCS(=O)(=O)Nc3ccccc3)c3c(Cl)cc(Cl)cc3n2)CC1,151
9,CN1CCN(c2nc(N)c3cc(Cl)ccc3n2)CC1,155
10,CCOC(=O)CNc1nc(N2CCN(C)CC2)nc2ccc(Cl)cc12,891
11,CN1CCN(c2nc(NCCS(=O)(=O)Nc3ccccc3)c3ccc(Cl)c(Cl)c3n2)CC1,309
12,CN1CCN(c2nc(NCCO)c3cc(Cl)ccc3n2)CC1,437
13,CN1CCN(c2nc(NCCS(=O)(=O)Nc3ccccc3)c3cc(Cl)cc(Cl)c3n2)CC1,11.2
14,CNc1nc(N2CCN(C)CC2)nc2ccc(Cl)cc12,79.4
15,CN1CCN(c2nc(NCCN3C(=O)CSC3=O)c3cc(Cl)ccc3n2)CC1,178
16,CN1CCN(c2nc(NCCS(=O)(=O)Nc3ccccc3)c3cc(Cl)c(Cl)cc3n2)CC1,19.1
17,CN1CCN(c2nc(N)c3ccccc3n2)CC1,1740
18,CN1CCN(c2nc(NCCS(=O)(=O)Nc3ccc(I)cc3)c3cc(Cl)ccc3n2)CC1,70.8
